Experimental data published in patent publication US8729052B2, “Composition for the prevention and treatment of alopecia, or for hair growth” (Phytos Co., Ltd., priority 2008, dated 2014).
“Also recorded” adds a separate entry of the source.

Legend:
[1] = tested on: CAM (chorioallantoic membrane); assay: Test for angiogenic activity, CAM (chorioallantoic membrane) assay; format: in vivo, chicken; conditions: for Angiogenic activity compared to the control: CAM assay, Table 3 and FIG. 5
Procedure: NAPS-1-P 0.5%-containing liposomes and the PhS-1-P 0.5%-containing liposomes, respectively prepared in Examples 1 and 4, were assayed for angiogenesis, with the use of phosphate buffered saline as a negative control, sphingosine-1-phosphate (PS-1-P) as a positive control, and the angiogenesis inhibitor trimethyl phytosphingosine (TMP) as a suppressive control.
For angiogenesis assay, CAM (chorioallantoic membrane) was used as a model. CAM from developing chicken eggs is routinely used in biological and biomedical research to investigate angiogenesis.
Fertile hen's eggs which were within one day after being laid, were purchased. Three days later, 6 mL of the white was removed from the fertile hen's eggs using a syringe, as illustrated in i of FIG. 4. Afterward, the eggs were opened at the top, as illustrated in ii of FIG. 4. From three days after egg-laying, the embryo started to develop. The membrane surrounding the embryo is CAM. Then, a cover slip on which a test drug was dropwise loaded and dried was placed on CAM, as illustrated in iii of FIG. 4. After the lapse of three days, the eggs were examined for drug-induced angiogenesis under a microscope, as illustrated in iv of FIG. 4.

[2] = tested on: Balb/c mice, depilated area; assay: Test for hair growth in Balb/c mice (2), once a day for four weeks; format: in vivo; conditions: applied once a day for four weeks
Text: Balb/c mice, 5-6 weeks old, were purchased and shaved on the side to remove hair partially, followed by applying a depilatory cream to the shaved area to remove hair therefrom completely. The mice which were not completely depilated were excluded from the test. The suitable mice were randomly housed in cages at a population of three per cage. A total of five cages were employed.
The mice were left for one day after hair removal, and then the depilated area was coated once a day with the NAPS-1-P-containing liposomes prepared in Example 1. A total of 14 rounds of application were conducted. Hair growth was compared between treated groups and non-treated groups.
The NAPS-1-P 0.5%-containing liposomes (Example 1), the NAPS-1-P 1.0%-containing liposomes (Example 2), and the PhS-1-P 0.5%-containing liposomes (Example 4) were tested for hair growth activity in the same manner as in Experimental Example 1, with the exception that they were applied once a day for four weeks. In this context, Rogaine 5% (minoxidil 5% solution) was used as a positive control.

[3] = microscopic observation three days after placing test drug on CAM

Row | Compound | Angiogenesis results: count graded − (weakly inhibitive of angiogenesis) [1, 3] | Angiogenesis results: count graded −− (highly inhibitive of angiogenesis) [1, 3] | Hair growth promoting activity, comparison between substances, concentrations or with minoxidil 5% solution (FIGS. 2 and 3) [2] | Angiogenic activity compared to the control [1] | Angiogenesis results: count graded + (weakly promotive of angiogenesis) [1, 3] | Angiogenesis results: count graded ++ (highly promotive of angiogenesis) [1, 3] | Angiogenesis results: count graded +/− (insignificantly promotive of angiogenesis) [1, 3]
1 | trimethyl phytosphingosine [TMP, reference compound] | 2 | 8 |  |  |  |  | 
2 | CCCCCCCCCCCCCC[C@@H](O)[C@@H](O)[C@H](COP(=O)(O)O)NC(C)=O [NAPS-1-P, N-acetylphytosphingosine-1-phosphate] |  |  | superior of NAPS-1-P to PhS-1-P | significant angiogenic activity; also recorded: peak activity | 3 | 7 | 
3 | CCCCCCCCCCCCCC[C@@H](O)[C@@H](O)[C@@H](N)COP(=O)(O)O [PhS-1-P, phytosphingosine-1-phosphate] |  |  |  | significant angiogenic activity | 5 | 4 | 1
4 | CCCCCCCCCCCCC/C=C/[C@@H](O)[C@@H](N)COP(=O)(O)O [PS-1-P, sphingosine-1-phosphate, reference compound] |  |  |  |  | 5 | 4 | 1
